Results: US20220356163A1, “SMALL MOLECULE INHIBITORS OF Id PROTEINS” (MEMORIAL SLOAN KETTERING CANCER CENTER, priority 2019, published 2022)

Experiments:
ID1-E47 = target: T1, ID1-E47 (Homo sapiens, UniProt P41134); assay: Immunoprecipitation of endogenous ID1 and E47 in HCT116 cells; type: cell-based; conditions: 60 μM, one hour
T1 construct: host or cells: HCT116
Protocol: Immunoprecipitation. Cells were lysed in NP40 lysis buffer (50 mM Tris-HCl, pH 7.5, 150 mM NaCl, 1 mM EDTA, 1% NP40, 1.5 mM Na3VO4, 50 mM sodium fluoride, 10 mM sodium pyrophosphate, 10 mM P-glycerolphosphate and EDTA free protease inhibitor cocktail (Roche)) or RIPA buffer (50 mM Tris-HCl, pH 7.5, 150 mM NaCl, 1 mM EDTA, 1% NP40, 0.5% Sodium Deoxycholate, 0.1% Sodium dodecyl sulfate, 1.5 mM Na3VO4, 50 mM sodium fluoride, 10 mM sodium pyrophosphate, 10 mM P-glycerolphosphate and EDTA free protease inhibitor cocktail (Roche)). Lysates were cleared by centrifuge at 15,000 rpm for 15 minutes at 4° C. For immunoprecipitation, cell lysates were incubated with primary antibody (FLAG M2 affinity gel, Sigma, F2426; ID1 (C-20), Santa Cruz, sc-488; E2A (N-649), Santa Cruz, sc-763) and protein G/A beads (Santa Cruz, sc-2003) at 4° C. overnight. Beads were washed with lysis buffer four times and eluted in 2×SDS sample buffer. Protein samples were separated by SDS-PAGE and transferred to a polyvinylidene fluoride (PVDF) membrane. Membranes were blocked in TBS containing 5% non-fat milk and 0.1% Tween20, and probed with primary antibodies. […]

ID1, ID2, ID3 and ID4 = assay: Western blot for ID1-ID4 in HCT116 cells; type: cell-based; conditions: 40 μM, 0-48 hours
Protocol: Immunoblotting. For immunoblotting, cells were collected by trypsinization, washed with PBS and lysed in homogenization buffer (0.3 M sucrose, 10 mM Tris (pH 8.0), 400 mM sodium chloride, 3 mM magnesium chloride, 0.5% NP40/IGEPAL, 100 μg/mL Aprotinin+Protease inhibitor cocktail (Roche #11 836 153 001). Proteins were separated by SDS-PAGE, transferred to a membrane (LI-COR), probed with primary antibodies overnight at 4° C., and probed with secondary antibodies (LI-COR) for 1-2 hours at room temperature. Proteins were visualized using the LI-COR Odyssey Infrared Imaging detection system. The following primary antibodies were used Id1, Id2, Id3, Id4 (195-14, 9-2-8, 17-3, 82-12, respectively, all from Biocheck), Cyclin D1 (2978, Cell Signaling), Actin (A2066, Sigma), Tubulin (T4026, Sigma). Western blot quantification was carried out using channel 700 and channel 800 intensity data from Odyssey application software version 3.0.30 (LI-COR), subtracting blank values and normalizing to Tubulin.
The activity of AGX51 was tested on primary human umbilical vein endothelial cells (HUVECs) and the HCT116 colorectal cancer cell line, two cell types with different ID1-4 expression profiles. […] The effects of AGX51 on ID3 loss in HUVECs was diminished in the 20-40 μM range compared with ID1, consistent with the weaker perturbation observed in the CD spectra.

[1] = 14-day toxicity study, i.p.; type: in vivo; conditions: 60 mg/kg bid i.p., 14 days
Protocol: Toxicity analyses. To assess for toxicity, female athymic nude mice (Envigo), age 6-8 weeks, were dosed i.p. with either a control vehicle (70% DMSO in water) or AGX51 at 60 mg/kg twice daily for 14 consecutive days. Mice were sacrificed 24 hours after the last test administration. Gross and complete necropsy, along with clinical pathology analysis was conducted on all mice. Clinical Chemistry parameters measured were: BUN, Creatine, ALP, ALT, AST, GGT, Bilirubin, Total Protein, Albumin, Globulin, Phosphorus, Glucose, Cholesterol, Phosphorus, Calcium, Sodium, Potassium, Chloride. Hematology parameters measured were: white blood cells (lymphocytes, Monocytes, Eosinophils, Basophils, Neutrophils), red blood cells, Hemoglobin, Hematocrit, MCV, MCH, MCHC, RDW, Platelets. Organs/Tissues analyzed were: Lung, heart, thymus, kidneys, liver, spleen, gall bladder, pancreas, duodenum, jejunum, ileum, cecum, colon, bone marrow, femur, tibia, sternum, brain, eyes, ears, nasal and oral cavities, teeth, mesenteric and tracheal lymph nodes.

T1 sequence (P41134 whole entry): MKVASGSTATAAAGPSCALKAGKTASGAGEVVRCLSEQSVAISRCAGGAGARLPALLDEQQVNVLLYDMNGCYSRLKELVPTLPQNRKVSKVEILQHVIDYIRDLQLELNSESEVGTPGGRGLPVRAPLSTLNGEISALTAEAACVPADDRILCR

SMILES: CCC(=O)N(CCC(c1ccc2c(c1)OCO2)c1ccccc1OC)Cc1ccccc1 (racemic) [AGX51, N-(3-(benzo[d][1,3]dioxol-5-yl)-3-(2-methoxyphenyl)propyl)-N-benzylpropionamide]
- co-precipitated ID1/E47 proteins (ID1-E47): markedly reduced the levels of the co-precipitated proteins
- ID protein levels (ID1, ID2, ID3 and ID4): reduced levels of ID1, 1D2, ID3 and ID4
- clinical chemistry parameters and hematology [1]: within normal limits
- gross necropsy and histopathological evaluation of all major organs [1]: No abnormal findings
- weight loss [1]: no significant weight loss
